Measurements from patent US8907126B2, “Tyrosine derivative and method for producing tyrosine derivative” (NARD Institute, Ltd., priority 2012, dated 2014).

Biological target: T1, human recombinant melatonin MT1 receptors (Homo sapiens, UniProt P48039)
T1 construct: expressed in transfected cells; host or cells: CHO-K1 cells (membranes)
Assay: Inhibitory activity test against melatonin MT1 receptor ([35S]GTPγS binding, SPA)
Type: biochemical
Conditions: membranes of CHO-K1 cells expressing MT1, 0.1 nM 2-iodomelatonin, 0.3 nM [35S]GTPγS, HEPES buffer pH 7.4; test concentration not given
Description: An inhibitory activity of the tyrosine derivative of the present invention against a melatonin MT1 receptor was evaluated. Specifically, human recombinant melatonin MT1 receptors expressed in CHO-K1 cells were used in modified HEPES buffer pH 7.4. The tyrosine derivative obtained in the above Example 8 was preincubated with 0.025 mg/mL of membranes of the cell and 1 μM of guanosine diphosphate in modified HEPES buffer (pH 7.4) at 25° C. for 20 minutes, then SPA, i.e. Scintillation proximity assay, beads were added thereto. The mixture was preincubated at 30° C. for 60 minutes. The reaction was initiated by adding 0.3 nM of [^35S]GTPγS and incubating the mixture for 30 minutes, and the test compound-induced inhibition of 0.1 nM 2-iodomelatonin-induced increase of [^35S]GTPγS binding response was measured.

T1 sequence (P48039 whole entry): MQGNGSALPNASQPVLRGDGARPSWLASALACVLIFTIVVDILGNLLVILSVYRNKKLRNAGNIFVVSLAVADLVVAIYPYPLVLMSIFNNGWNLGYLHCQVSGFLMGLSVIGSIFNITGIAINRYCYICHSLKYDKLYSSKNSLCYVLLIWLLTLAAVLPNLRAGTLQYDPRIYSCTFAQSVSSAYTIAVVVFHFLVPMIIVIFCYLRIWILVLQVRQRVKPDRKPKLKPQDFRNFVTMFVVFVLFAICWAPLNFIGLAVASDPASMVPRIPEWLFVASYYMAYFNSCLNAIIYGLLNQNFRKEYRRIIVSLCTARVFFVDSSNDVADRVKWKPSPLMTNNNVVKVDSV

inhibition of 2-iodomelatonin-induced increase of [35S]GTPγS binding response: 33%
SMILES: CC(C)(C)OC(=O)NC(Cc1cc(OCCCl)ccc1I)C(=O)OC(C)(C)C (stereo not shown) [Example 8]
